Measurements: the NIST ThermoML archive (doi:10.1021/je5004669)

Conditions: 101.33 kPa, Liquid; for mass density: Vibrating tube method; for viscosity: Capillary tube (Ostwald / Ubbelohde) method

CCCN.CCCN.O=S(=O)([N-]S(=O)(=O)C(F)(F)F)C(F)(F)F.[Ag+]
Conditions	mass density [kg/m3]	viscosity [mPa·s]
293 K	1637.5	–
293.2 K	–	46.09
298 K	1632	–
298.1 K	–	36
303 K	1626.3	–
303.2 K	–	31.07
308.2 K	–	27.03
313 K	1614.7	–
313.2 K	–	25.28
318.3 K	–	21.28
323 K	1603.5	–
323.2 K	–	18.21
328.2 K	–	15.85
333 K	1592.3	–
333.2 K	–	14.84
